# From US20200277404A1, “COMPOSITIONS AND METHODS FOR REGULATION OF IMMUNE CELL ACTIVATION AND PROLIFERATION” (MONELL CHEMICAL SENSES CENTER, priority 2017, published 2020)
# Tested on: bitter receptors (T2Rs)
# Experiment: Expression of bitter receptors (T2Rs) in Raw264.7 cells treated with LPS or DEX
# Type: cell-based
# Conditions: mouse monocyte/macrophage Raw264.7 cell line, FIG. 4
# Protocol: The mouse monocyte/macrophage Raw264.7 cell line was also used to study T2Rs. Raw264.7 cells were treated with lipopolysaccharide (LPS) and dexamethasone (DEX).
substance,measurement,value
lipopolysaccharide [LPS],expression levels of some bitter receptors (T2Rs),strongly induced
